Where a name gives a salt, the structure may show the parent alone.
Key:
[1] = target: T1, recombinant human 5-HT2A receptor (Homo sapiens, UniProt P28223); experiment: Radioligand binding, competition for [3H]Ketanserin in CHO-K1 cell membranes; settings: [3H]Ketanserin displacement, read-out: pKi for the 5-HT2A receptor (converted)
T1 construct: expressed in transfected cells; membranes
Method: (§1) The binding activity of compounds of this invention in vitro was determined as follows. Duplicate determinations of 5-HT6 ligand affinity were made by competing for binding of [^3H]LSD in cell membranes derived from HEK293 cells stably expressing recombinant human 5-HT6 receptor. Duplicate determinations of 5-HT2A ligand affinity were made by competing for binding of [^3H]Ketanserin (3-(2-(4-(4-fluorobenzoyl)piperidinol)ethyl)-2,4(1H,3H)-quinazolinedione) in cell membranes derived from CHO-K^1 cells stably expressing recombinant human 5-HT2A receptor. Membranes were prepared from HEK 293 cell lines by the method described by Monsma et al., Molecular Pharmacology, Vol. 43 pp. 320-327 (1993), and from CHO-K1 cell lines as described by Bonhaus et al., Br J. Pharmacol. June; 115(4):622-8 (1995).
(§2) For estimation of affinity at the 5-HT6 receptor, all determinations were made in assay buffer containing 50 mM Tris-HCl, 10 mM MgSO4, 0.5 mM EDTA, 1 mM ascorbic acid, pH 7.4 at 37° C., in a 250 microliter reaction volume. […]
(§3) Assay tubes containing [^3H] […] LSD or [^3H]Ketanserin were determined as radioactive counts per minute using Packard TopCount.
(§4) Displacement of [^3H]LSD or [^3H]Ketanserin from the binding sites was quantified by fitting concentration-binding data to a 4-parameter logistic equation: […]

[2] = target: T2, recombinant human 5-HT6 receptor (Homo sapiens, UniProt P50406); experiment: Radioligand binding, competition for [3H]LSD in HEK293 cell membranes; settings: receptor not printed for this value in the sentence; radioligand binding of Example 13
T2 construct: expressed in transfected cells; membranes
Method: as §1, §2, §3, §4

T1 sequence (P28223 whole entry): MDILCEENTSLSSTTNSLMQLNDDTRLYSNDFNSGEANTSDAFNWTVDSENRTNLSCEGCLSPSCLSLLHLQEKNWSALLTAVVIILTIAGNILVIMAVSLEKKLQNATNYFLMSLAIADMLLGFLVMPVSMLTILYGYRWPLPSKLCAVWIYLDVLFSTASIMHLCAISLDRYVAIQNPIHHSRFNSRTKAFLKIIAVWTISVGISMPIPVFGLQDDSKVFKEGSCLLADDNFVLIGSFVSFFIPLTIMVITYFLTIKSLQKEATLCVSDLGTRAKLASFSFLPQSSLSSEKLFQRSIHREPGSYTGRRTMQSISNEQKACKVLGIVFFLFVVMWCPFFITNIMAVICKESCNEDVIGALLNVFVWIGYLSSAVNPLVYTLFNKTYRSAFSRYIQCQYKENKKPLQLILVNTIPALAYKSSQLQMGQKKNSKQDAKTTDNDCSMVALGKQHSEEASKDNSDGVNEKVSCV
T2 sequence (P50406 whole entry): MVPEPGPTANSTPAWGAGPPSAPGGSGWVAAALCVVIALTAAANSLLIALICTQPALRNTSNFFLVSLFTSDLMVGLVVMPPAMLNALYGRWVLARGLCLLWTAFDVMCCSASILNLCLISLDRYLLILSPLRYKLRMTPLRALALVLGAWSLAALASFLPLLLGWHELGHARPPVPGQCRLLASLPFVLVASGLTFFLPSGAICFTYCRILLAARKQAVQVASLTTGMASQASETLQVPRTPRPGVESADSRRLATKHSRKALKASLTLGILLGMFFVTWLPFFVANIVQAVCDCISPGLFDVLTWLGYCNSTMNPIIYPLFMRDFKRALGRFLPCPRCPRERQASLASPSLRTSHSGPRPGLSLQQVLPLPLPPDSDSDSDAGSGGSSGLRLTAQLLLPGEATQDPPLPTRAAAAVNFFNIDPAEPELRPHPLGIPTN

Row | SMILES | melting point [°C] | also measured
1 | CNCCOc1cccc2c1n(C)c(=O)n2Cc1ccccc1 (as salt: hydrochloride) | 203.8 to 205.1 | –
2 | O=C1Cc2c(N3CCNCC3)cccc2N1Cc1ccc(F)c(F)c1 [1-(3,4-Difluoro-benzyl)-4-piperazin-1-yl-1,3-dihydro-indol-2-one] | – | Ki [1]: ~0.331 nM
3 | O=c1[nH]c2c(N3CCNCC3)ccc(Cl)c2n1Cc1cccc(F)c1 [7-Chloro-1-(3-fluoro-benzyl)-4-piperazin-1-yl-1,3-dihydro-benzoimidazol-2-one] | – | Ki [2]: ~0.331 nM

Continued, in another order:

Row | melting point [°C] | SMILES | also measured
4 | 181 to 184 | O=c1[nH]c2c(OC3CNC3)cccc2n1Cc1ccccc1 | –
5 | 210 to 216.6 | O=c1[nH]c2c(OCC3CNC3)cccc2n1Cc1ccccc1 (as salt: hydrochloride) | –

Reference: patent US7582760B2, “Benzimidazolone and dihydroindolone derivatives and uses thereof” (Roche Palo Alto LLC, priority 2005, dated 2009)
